Values joined by “and” are separate entries in the source; they are usually repeats but may differ in a detail not shown here. Equal values may be shown once. Read-outs that look alike come from different tables or passages of the source.
Assays:
[1] = tested on: Sorghum line TX430 immature embryos; settings: for Transformation frequency (%): dark
Method: (§1) Sorghum line TX430 immature embryos (9-15 DAP when embryo size around 0.8-2.5 mm) were infected with 1×10^9cfu/mL Agrobacterium LBA4404 containing superbinary vector PHPMYFP in PHI-I liquid medium. The embryos were co-cultivated on PHI-T medium plates at 25° C. (ranged 21-25° C.) in dark for 3 days (ranged 1-7 days).
(§2) The whole selection step was in dark at 28° C. After two to three months from the initiation of the experiment, transgenic callus events were cultured for plant regeneration on the same regeneration medium (PHI-RF and PHI-Z) at the regular regeneration conditions.
Transformation frequency was calculated by the number of embryos producing transgenic plants divided by the number of embryos infected by Agrobacterium

[2] = tested on: Sorghum line TX430 immature embryos; settings: for Transformation frequency (%): dark; remark: listed apart in the source
Method: as §1, §2
Transformation frequency was calculated by the number of embryos producing transgenic callus capable of regeneration divided by the number of embryos infected by Agrobacterium

[3] = tested on: Maize inbred PHR03 immature embryos; settings: for Transformation frequency (%): dark
Method: (§3) Maize inbred PHR03 immature embryos (9-13 DAP when embryo size around 0.8-2.5 mm) were infected with 5×10^8 cfu/mL Agrobacterium LBA4404 containing superbinary vector PHPMRFP in PHI-I liquid medium. The embryos were then co-cultivated on PHI-T co-cultivation media plates at 21° C. in dark conditions for 3 days. This may range from 1-7 days.
(§4) The embryos were subcultured every 2-3 weeks.
(§5) A regeneration step is followed by culturing the putative transgenic callus on PHI-RF medium plates for producing shoots and a rooting step on medium plates PHI-RR.
Transformation frequency was calculated by the number of embryos producing transgenic callus capable of regenerating plants divided by the number of embryos infected by Agrobacterium.

[4] = tested on: Sorghum line TX430 immature embryos
Method: as §1
The whole selection step was in dark or dim light at 28° C. After two to three months from the initiation of the experiment, transgenic callus events were cultured for plant regeneration on the same regeneration medium (PHI-RF and PHI-Z) at the regular regeneration conditions.
(§6) Transformation frequency was calculated by the number of embryos producing transgenic plants divided by the number of embryos infected by Agrobacterium.

[5] = tested on: Maize inbred PHR03 immature embryos; test: Transformation frequency of maize using various light intensities (Example 18); assay type: cell-based; settings: 4 μM copper in DBC3 resting and selection media
Method: as §3, §4
A regeneration step was followed by culturing the putative transgenic callus on PHI-RF medium plates for producing shoots and a rooting step on medium plates PHI-RR.
as §6

[6] = tested on: Maize inbred PHR03 immature embryos; settings: for Transformation frequency (%): dark; remark: listed apart in the source
Method: as §3, §4, §5, §6

[7] = 0.1 μM copper (negative control) in DBC3 resting and selection media, Average of exp 1-4
[8] = 0.1 μM copper (negative control) in DBC3 resting and selection media, single experiments exp 1-4
[9] = 5 μM copper in DBC3 resting and selection media, Average of exp 1-4

O=S(=O)([O-])[O-].[Cu+2] [copper, cupric sulfate]
Transformation frequency (%) [1, 7]: 2.0% | Transformation frequency (%) [1, 8]: 3.33% and 2.50% and 0.00% | increase of transformation frequency over 0.1 μM copper ([1]; 5 μM copper and above, sorghum): 4-6 times | Transformation frequency (%) [1, 9]: 13.8% | Transformation frequency (%) ([1]; 5 μM copper in DBC3 resting and selection media, single experiments exp 1-4): 16.67% and 15.00% and 8.33% | Transformation frequency (%) ([1]; 10 μM copper in DBC3 resting and selection media, Average): 13.0% | Transformation frequency (%) ([1]; 10 μM copper in DBC3 resting and selection media, single experiments exp 1-4): 20.00% and 10.00% and 12.50% | Transformation frequency (%) ([1]; 30 μM copper in DBC3 resting and selection media, Average of exp 1-4): 8.2% | Transformation frequency (%) ([1]; 50 μM copper in DBC3 resting and selection media, Average of exp 1-4): 9.6% | Transformation frequency (%) ([1]; 50 μM copper in DBC3 resting and selection media, single experiments exp 1-4): 5.00% and 10.00% and 11.11% | Transformation frequency (%) ([2]; 0.1 μM copper in DBC3 resting and selection media, Average of exp 1-2): 10.0% | Transformation frequency (%) ([2]; 0.1 μM copper in DBC3 resting and selection media, single experiments exp 1-2): 15.0% and 5.0% | increase of transformation frequency over 0.1 μM copper ([2]; 1 μM copper and above, sorghum): two times | Transformation frequency (%) ([2]; 1 μM copper in DBC3 resting and selection media, Average of exp 1-2): 23.8% | Transformation frequency (%) ([2]; 1 μM copper in DBC3 resting and selection media, single experiments exp 1-2): 30.0% and 17.5% | Transformation frequency (%) ([2]; 4 μM copper in DBC3 resting and selection media, Average of exp 1-2): 17.1% | Transformation frequency (%) ([2]; 5 μM copper in DBC3 resting and selection media, Average of exp 1-2): 26.3% | Transformation frequency (%) ([2]; 5 μM copper in DBC3 resting and selection media, single experiments exp 1-2): 27.5% and 25.0% | Transformation frequency (%) [3, 7]: 4.4% | Transformation frequency (%) [3, 8]: 2.5% and 5.0% and 7.5% | increase of transformation frequency over 0.1 μM copper ([3]; 1 μM copper and above, maize): 3-5 times | Transformation frequency (%) ([3]; 1 μM copper in DBC3 resting and selection media, Average of exp 1-4): 16.9% | Transformation frequency (%) ([3]; 1 μM copper in DBC3 resting and selection media, single experiments exp 1-4): 15% and 17.5% and 20% | Transformation frequency (%) ([3]; 4 μM copper in DBC3 resting and selection media, Average of exp 1-4): 11.9% | Transformation frequency (%) [3, 9]: 23.1% | Transformation frequency (%) ([4]; 4 μM copper in DBC3 resting and selection media, Dim light, Average of exp 1-2): 31.3% | Transformation frequency (%) ([4]; 4 μM copper in DBC3 resting and selection media, dark, Average of exp 1-2): 17.1% | Transformation frequency (%) ([4]; 5 μM copper in DBC3 resting and selection media, Dim light, Average of exp 1-2): 20.0% | Transformation frequency (%) ([4]; 5 μM copper in DBC3 resting and selection media, dark, Average of exp 1-2): 26.3% | Transformation frequency (%) ([4]; 5 μM copper in DBC3 resting and selection media, dark, single experiments exp 1-2): 27.5% and 25.0% | Transformation frequency (%) ([5]; Dark, single experiments exp 1-4): 10% and 17.5% and 12.5% and 7.5% | Transformation frequency (%) ([5]; Dim light, Average of exp 1-4): 17.5% | Transformation frequency (%) ([5]; dark, Average of exp 1-4): 11.9% | Transformation frequency (%) ([6]; 0.1 μM copper (negative control) in DBC3 resting and selection media, Average of exp 1-5): 2.9% | Transformation frequency (%) ([6]; 0.1 μM copper (negative control) in DBC3 resting and selection media, single experiments exp 1-5): 5.0% and 0.0% and 10.0% | increase of transformation frequency over 0.1 μM copper ([6]; 5 μM copper and above, maize): 4-7 times | Transformation frequency (%) ([6]; 5 μM copper in DBC3 resting and selection media, Average of exp 1-5): 23.5% | Transformation frequency (%) ([6]; 10 μM copper in DBC3 resting and selection media, Average of exp 1-5): 19.0% | Transformation frequency (%) ([6]; 30 μM copper in DBC3 resting and selection media, Average of exp 1-5): 14.0% | Transformation frequency (%) ([6]; 50 μM copper in DBC3 resting and selection media, Average of exp 1-5): 21.0%

From US8404930B2, “Methods for improving monocot transformation” (Pioneer Hi-Bred International, Inc., priority 2009, dated 2013)
